Experiments:
[1] = tested on: bedstraw; assay: Test B pre/postemergence bedstraw; format: in vivo, Galium aparine
Procedure, shortened: (§1)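 Test chemicals in a non-phytotoxic solvent mixture with surfactant were sprayed preemergence onto planted seeds and postemergence onto plants 2 to 18 cm tall (1- to 4-leaf stage). After twelve to sixteen days in a greenhouse, injury was visually rated against untreated controls from 0 (no effect) to 10 (complete control).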

[2] = tested on: surinam grass; assay: Test B pre/postemergence surinam grass; format: in vivo, Brachiaria decumbens
Procedure, shortened: as §1

[3] = tested on: cocklebur; assay: Test B pre/postemergence cocklebur; format: in vivo, Xanthium strumarium; conditions: for Cocklebur plant response rating: scale of 0 to 10 where 0 is no effect and 10 is complete control
Procedure, shortened: as §1

[4] = tested on: corn; assay: Test B pre/postemergence corn; format: in vivo, Zea mays; conditions: for Corn plant response rating: scale of 0 to 10 where 0 is no effect and 10 is complete control
Procedure, shortened: as §1

[5] = tested on: giant foxtail; assay: Test B pre/postemergence giant foxtail; format: in vivo, Setaria faberii; conditions: for Giant foxtail plant response rating: scale of 0 to 10 where 0 is no effect and 10 is complete control
Procedure, shortened: as §1

[6] = tested on: pigweed; assay: Test B pre/postemergence pigweed; format: in vivo, Amaranthus retroflexus; conditions: for Redroot pigweed plant response rating: scale of 0 to 10 where 0 is no effect and 10 is complete control
Procedure, shortened: as §1

[7] = tested on: rape; assay: Test B pre/postemergence rape; format: in vivo, Brassica napus; conditions: for Rape plant response rating: scale of 0 to 10 where 0 is no effect and 10 is complete control
Procedure, shortened: as §1

[8] = tested on: soybean; assay: Test B pre/postemergence soybean; format: in vivo, Glycine max; conditions: for Soybean plant response rating: scale of 0 to 10 where 0 is no effect and 10 is complete control
Procedure, shortened: as §1

[9] = tested on: sugar beet; assay: Test B pre/postemergence sugar beet; format: in vivo, Beta vulgaris; conditions: for Sugarbeets plant response rating: scale of 0 to 10 where 0 is no effect and 10 is complete control
Procedure, shortened: as §1

[10] = tested on: velvetleaf; assay: Test B pre/postemergence velvetleaf; format: in vivo, Abutilon theophrasti; conditions: for Velvetleaf plant response rating: scale of 0 to 10 where 0 is no effect and 10 is complete control
Procedure, shortened: as §1

[11] = tested on: wheat; assay: Test B pre/postemergence wheat; format: in vivo, Triticum aestivum; conditions: for Wheat plant response rating: scale of 0 to 10 where 0 is no effect and 10 is complete control
Procedure, shortened: as §1

[12] = tested on: wild oat; assay: Test B pre/postemergence wild oat; format: in vivo, Avena fatua; conditions: for Wild oats plant response rating: scale of 0 to 10 where 0 is no effect and 10 is complete control
Procedure, shortened: as §1

[13] = tested on: purple nutsedge; assay: Test B pre/postemergence purple nutsedge; format: in vivo, Cyperus rotundus; conditions: for Nutsedge plant response rating: scale of 0 to 10 where 0 is no effect and 10 is complete control
Procedure, shortened: as §1

[14] = tested on: rice; assay: Test B flood test rice; format: in vivo, Oryza sativa
Procedure, shortened: (§2)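 Flood test on plants grown to the 2-leaf stage; treated plants kept in greenhouse twelve to sixteen days, then visually rated against controls on a 0 (no effect) to 10 (complete control) scale.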

[15] = tested on: smallflower flatsedge; assay: Test B flood test smallflower flatsedge; format: in vivo, Cyperus difformis
Procedure, shortened: as §2

[16] = tested on: duck salad; assay: Test B flood test duck salad; format: in vivo, Heteranthera limosa
Procedure, shortened: as §2

[17] = Postemergence, Rate 125 g/ha, scale 0 to 10, 0 is no effect, 10 is complete control
[18] = Preemergence, Rate 62 g/ha, scale of 0 to 10 where 0 is no effect and 10 is complete control
[19] = Preemergence, Rate 250 g/ha, scale of 0 to 10 where 0 is no effect and 10 is complete control
[20] = Preemergence, Rate 500 g/ha, scale of 0 to 10 where 0 is no effect and 10 is complete control
[21] = Rate 62 g/ha, Postemergence, scale of 0 to 10 where 0 is no effect and 10 is complete control
[22] = Rate 250 g/ha, Postemergence, scale of 0 to 10 where 0 is no effect and 10 is complete control
[23] = Rate 500 g/ha, Postemergence, scale 0 to 10, 0 no effect, 10 complete control
[24] = Rate 62 g/ha, headed Pre-emergence (flood test species), scale 0 to 10 (0 no effect, 10 complete control)
[25] = Rate 125 g/ha, Pre-emergence, flood test species, scale 0 to 10 where 0 is no effect and 10 is complete control
[26] = Rate 250 g/ha, Pre-emergence, flood-test species, scale 0 to 10, 0 is no effect, 10 is complete control
[27] = Rate 500 g/ha, Pre-emergence, flood test species, scale 0 to 10 (0 no effect, 10 complete control)

For `CC(C)N(C(=O)n1oc(=O)n(C2CCCCCC2)c1=O)c1ccc(Cl)cc1` [Compound 339], the “Plant response rating, Bedstraw” value [1, 17] was 2, the “Bedstraw plant response rating” value [1, 18] was 0 and the “Bedstraw plant response rating (0 to 10 scale)” value ([1]; Preemergence, Rate 125 g/ha) was 0. For the same compound, the “Bedstraw plant response rating” value [1, 19] was 0, the “Bedstraw plant response rating” value [1, 20] was 0 and the “Bedstraw plant response rating” value [1, 21] was 0. The “Plant response rating, Bedstraw” value [1, 22] was 7, the “Plant response rating, Bedstraw” value [1, 23] was 8 and the “Plant response rating, B. signalgrass” value [2, 17] was 0. For the same compound, the “B. signalgrass plant response rating” value [2, 18] was 0, the “B. signalgrass plant response rating (0 to 10 scale, 0 is no effect, 10 is complete control)” value ([2]; Preemergence, Rate 125 g/ha) was 0 and the “B. signalgrass plant response rating” value [2, 19] was 0. The “B. signalgrass plant response rating” value [2, 20] was 0, the “B. signalgrass plant response rating” value [2, 21] was 0 and the “Plant response rating, B. signalgrass” value [2, 22] was 0. The “Plant response rating, B. signalgrass” value [2, 23] was 0, the “Plant response rating, Cocklebur” value [3, 17] was 0 and the “Cocklebur plant response rating” value ([3]; Preemergence, Rate 62 g/ha) was 0. For the same compound, the “Cocklebur plant response rating (0 to 10 scale)” value ([3]; Preemergence, Rate 125 g/ha) was 0, the “Cocklebur plant response rating” value ([3]; Preemergence, Rate 250 g/ha) was 0 and the “Cocklebur plant response rating” value ([3]; Preemergence, Rate 500 g/ha) was 0. For the same compound, the “Cocklebur plant response rating” value ([3]; Rate 62 g/ha, Postemergence) was 0, the “Plant response rating, Cocklebur” value [3, 23] was 0 and the “Plant response rating, Corn” value [4, 17] was 0. For the same compound, the “Corn plant response rating” value ([4]; Preemergence, Rate 62 g/ha) was 0, the “Corn plant response rating (0 to 10 scale)” value ([4]; Preemergence, Rate 125 g/ha) was 0 and the “Corn plant response rating” value ([4]; Preemergence, Rate 250 g/ha) was 0. The “Corn plant response rating” value ([4]; Preemergence, Rate 500 g/ha) was 0, the “Corn plant response rating” value ([4]; Rate 62 g/ha, Postemergence) was 0 and the “Plant response rating, Corn” value [4, 23] was 0. The “Plant response rating, Giant foxtail” value [5, 17] was 0, the “Giant foxtail plant response rating” value ([5]; Preemergence, Rate 62 g/ha) was 1 and the “Giant foxtail plant response rating (0 to 10 scale)” value ([5]; Preemergence, Rate 125 g/ha) was 3. The “Giant foxtail plant response rating” value ([5]; Preemergence, Rate 250 g/ha) was 9, the “Giant foxtail plant response rating” value ([5]; Preemergence, Rate 500 g/ha) was 10 and the “Giant foxtail plant response rating” value ([5]; Rate 62 g/ha, Postemergence) was 0. For the same compound, the “Plant response rating, Giant foxtail” value [5, 23] was 0, the “Plant response rating, Redroot pigweed” value [6, 17] was 2 and the “Redroot pigweed plant response rating” value ([6]; Preemergence, Rate 62 g/ha) was 0. For the same compound, the “Redroot pigweed plant response rating (0 to 10 scale)” value ([6]; Preemergence, Rate 125 g/ha) was 0, the “Redroot pigweed plant response rating” value ([6]; Preemergence, Rate 250 g/ha) was 0 and the “Redroot pigweed plant response rating” value ([6]; Preemergence, Rate 500 g/ha) was 0. For the same compound, the “Redroot pigweed plant response rating” value ([6]; Rate 62 g/ha, Postemergence) was 0, the “Plant response rating, Redroot pigweed” value [6, 23] was 6 and the “Plant response rating, Rape” value [7, 17] was 1. For the same compound, the “Rape plant response rating” value ([7]; Preemergence, Rate 62 g/ha) was 0, the “Rape plant response rating (0 to 10 scale)” value ([7]; Preemergence, Rate 125 g/ha) was 0 and the “Rape plant response rating” value ([7]; Preemergence, Rate 250 g/ha) was 0. The “Rape plant response rating” value ([7]; Preemergence, Rate 500 g/ha) was 0, the “Rape plant response rating” value ([7]; Rate 62 g/ha, Postemergence) was 0 and the “Plant response rating, Rape” value [7, 23] was 5. The “Plant response rating, Soybean” value [8, 17] was 1, the “Soybean plant response rating” value ([8]; Preemergence, Rate 62 g/ha) was 0 and the “Soybean plant response rating (0 to 10 scale)” value ([8]; Preemergence, Rate 125 g/ha) was 0. The “Soybean plant response rating” value ([8]; Preemergence, Rate 250 g/ha) was 0, the “Soybean plant response rating” value ([8]; Preemergence, Rate 500 g/ha) was 0 and the “Soybean plant response rating” value ([8]; Rate 62 g/ha, Postemergence) was 1. The “Plant response rating, Soybean” value [8, 23] was 4, the “Plant response rating, Sugarbeets” value [9, 17] was 0 and the “Sugarbeets plant response rating” value ([9]; Preemergence, Rate 62 g/ha) was 0. The “Sugarbeets plant response rating (0 to 10 scale)” value ([9]; Preemergence, Rate 125 g/ha) was 0, the “Sugarbeets plant response rating” value ([9]; Preemergence, Rate 250 g/ha) was 0 and the “Sugarbeets plant response rating” value ([9]; Preemergence, Rate 500 g/ha) was 0. For the same compound, the “Sugarbeets plant response rating” value ([9]; Rate 62 g/ha, Postemergence) was 0, the “Plant response rating, Sugarbeets” value [9, 23] was 0 and the “Plant response rating, Velvetleaf” value [10, 17] was 0. For the same compound, the “Velvetleaf plant response rating” value ([10]; Preemergence, Rate 62 g/ha) was 0, the “Velvetleaf plant response rating (0 to 10 scale)” value ([10]; Preemergence, Rate 125 g/ha) was 0 and the “Velvetleaf plant response rating” value ([10]; Preemergence, Rate 250 g/ha) was 0. For the same compound, the “Velvetleaf plant response rating” value ([10]; Preemergence, Rate 500 g/ha) was 0, the “Velvetleaf plant response rating” value ([10]; Rate 62 g/ha, Postemergence) was 0 and the “Plant response rating, Velvetleaf” value [10, 23] was 0. The “Plant response rating, Wheat” value [11, 17] was 0, the “Wheat plant response rating” value ([11]; Preemergence, Rate 62 g/ha) was 0 and the “Wheat plant response rating (0 to 10 scale)” value ([11]; Preemergence, Rate 125 g/ha) was 0. For the same compound, the “Wheat plant response rating” value ([11]; Preemergence, Rate 250 g/ha) was 0, the “Wheat plant response rating” value ([11]; Preemergence, Rate 500 g/ha) was 0 and the “Wheat plant response rating” value ([11]; Rate 62 g/ha, Postemergence) was 0. For the same compound, the “Plant response rating, Wheat” value [11, 23] was 0, the “Plant response rating, Wild oats” value [12, 17] was 0 and the “Wild oats plant response rating” value ([12]; Preemergence, Rate 62 g/ha) was 0. The “Wild oats plant response rating (0 to 10 scale)” value ([12]; Preemergence, Rate 125 g/ha) was 0, the “Wild oats plant response rating” value ([12]; Preemergence, Rate 250 g/ha) was 0 and the “Wild oats plant response rating” value ([12]; Preemergence, Rate 500 g/ha) was 0. The “Wild oats plant response rating” value ([12]; Rate 62 g/ha, Postemergence) was 0, the “Plant response rating, Wild oats” value [12, 23] was 0 and the “Plant response rating, Nutsedge” value [13, 17] was 0. For the same compound, the “Nutsedge plant response rating” value ([13]; Preemergence, Rate 62 g/ha) was 0, the “Nutsedge plant response rating (0 to 10 scale)” value ([13]; Preemergence, Rate 125 g/ha) was 0 and the “Nutsedge plant response rating” value ([13]; Preemergence, Rate 250 g/ha) was 0. For the same compound, the “Nutsedge plant response rating” value ([13]; Preemergence, Rate 500 g/ha) was 0, the “Nutsedge plant response rating” value ([13]; Rate 62 g/ha, Postemergence) was 0 and the “Plant response rating, Nutsedge” value [13, 23] was 0. The “Rice plant response rating” value [14, 24] was 0, the “Rice plant response rating” value [14, 25] was 0 and the “Rice plant response rating” value [14, 26] was 0. For the same compound, the “Rice plant response rating” value [14, 27] was 1, the “S. Flatsedge plant response rating” value [15, 24] was 0 and the “S. Flatsedge plant response rating” value [15, 25] was 0. For the same compound, the “S. Flatsedge plant response rating” value [15, 26] was 0, the “S. Flatsedge plant response rating” value [15, 27] was 1 and the “Ducksalad plant response rating” value [16, 24] was 0. The “Ducksalad plant response rating” value [16, 25] was 0, the “Ducksalad plant response rating” value [16, 26] was 0 and the “Ducksalad plant response rating” value [16, 27] was 3.

Source: US6737383B1, “Herbicidal oxadiazolidines” (priority 1999, dated 2004)
